Experimental findings from patent publication EP4501920A1, “NOVEL PYRAZOLE DERIVATIVES” (Aptabio Therapeutics Inc., priority 2022, dated 2023) are described below.

Test [1] has as its system LX-2 (human hepatic stellate cells). Kind of test: ROS production induced by PMA in LX-2 cells. It is filed as cell-based. To be noted: FIG. 1. The source says: (§1) In order to confirm the effect of the compounds of Synthetic examples on ROS production from fibroblasts and specific substrate cells, ROS production was induced by stimulation of PMA (phorbol 12-myristate 13-acetate), TGF-β1, palmitate or high concentration-glucose, or the like, in HL-60 cells differentiated into neutrophil cells by DMSO treatment, NHLF (normal human lung fibroblast, Lonza), LX-2 (human hepatic stellate cells, Sigma), ARPE19 (human retinal pigment epithelial cell, ATCC), and KEL-FIB (Keloid fibroblast, ATCC) cells, and under this condition, the inhibitory effect of ROS production of the compounds of Synthetic examples was observed.
(§2) The NHLF (normal human lung fibroblast, Lonza), LX-2 (human hepatic stellate cells, Sigma), ARPE19 (human retinal pigment epithelial cell, ATCC), KEL-FIB (keloid fibroblast, ATCC) cells were suspended in a culture medium containing 10% FBS and aliquoted on a 96 well plate and then cultured under the condition of 5% CO2, 37°C for 24 hours. After pre-treating the compounds of Synthetic examples at a concentration of 10, 20, 30, 40, 60 and 80 µM for 30 minutes to 1 hour, the ROS stimulus was treated to each well containing the cells and drug. After additional culturing for 48 hours, the ROS production level was confirmed using L-012 or DCF-DA.

The test system of test [2] is NHLF (normal human lung fibroblast). Kind of test: ROS production induced by PMA in NHLF cells. In kind it is cell-based. To be noted: FIG. 1.
Excerpt: as §1, §2

Test [3] has as its system αSMA. Nature of the test: Expression of αSMA induced by TGF-β1 (immunocytochemistry). In kind it is cell-based, human. To be noted: TGF-β1 (10 ng/ml), 10 µM, FIG. 4. From the text: In order to confirm whether the compounds of Synthetic examples of the present invention affect differentiation of fibroblasts into myofibroblasts, the inhibitory effect of the compounds of Synthetic examples on increase in expression of αSMA (biomarker for confirming differentiation into myofibroblasts) induced by TGF-β1 on HFF-1 (human foreskin fibroblast, ATCC), NHLF (normal human lung fibroblast, Lonza), LX-2 (human hepatic stellate cells, Sigma), ARPE19 (human retinal pigment epithelial cell, ATCC), and KEL-FIB (Keloid fibroblast, ATCC) cells was to be observed.
Each cell was suspended in a DMEM medium containing 10% FBS and aliquoted at a concentration of 1×10^4 to 1.5 × 10 ^5 cells/well in a 4-well chamber slide (Nunc) and the compounds of Synthetic examples and TGF-β1 (both TGF β1 and TGF-β have the same meaning) were treated to prepare cells to be used for confirming αSMA expression. The confirmation of αSMA expression in the prepared cells was performed by immunocytochemistry as follows. For the cells, fixation with 4% paraformaldehyde for 10 minutes and permeabilization using 0.1% Triton x-100 were performed, and then processes of treating the primary antibody (anti-αSMA Ab, 1:200, at 4°C for 16 hours) and secondary antibody (Alexa-594 conjugated Ab, 1:800, at a room temperature for 1 hour) against αSMA were progressed in order, and then the expression level of αSMA was observed using a fluorescence microscope.
FIG. 3 observes the effect of treating various compounds of Synthetic examples by 10, 20 and 40 µM, after inducing αSMA expression by treatment of TGF-β1(10 ng/ml) into HFF cells.

The subject of test [4] is human foreskin fibroblasts (HFF-1, ATCC). Nature of the test: Collagen gel contraction induced by TGF-β1. To be noted: HFF-1 cells and bovine type I collagen; TGF-β1 (10 ng/ml); 72 hours; FIG. 7. It is filed as cell-based. From the text:
In order to confirm the effect of the compounds of Synthetic examples on differentiation of fibroblasts into myofibroblasts, the inhibitory effect of the compounds of Synthetic examples on the phenomenon of contraction of gel induced by interaction of human foreskin fibroblasts (HFF-1, ATCC) and collagen was observed.
The mixed solution of the HFF-1 cells and collagen (bovine type I collagen) prepared at a concentration of 3×10^6 cells/ml was aliquoted in a 24 well plate, respectively, and then cultured under the condition of 5% CO2, 37 °C for 1 hour to induce gel polymerization. Then, after suspending the gel attached on the plate from the plate using a spoon, a medium comprising TGF-β1 and Synthetic example compounds was added to each well. After culturing for 72 hours, the Synthetic example compounds were treated by 10, 20, 30, 40, 60 and 80 µM to measure the size of the gel, and thereby, the degree of contraction of the gel by drug treatment was confirmed.

Test [5] has as its system IL-1β. Kind of test: Expression of IL-1β induced by LPS in human-derived fibroblasts (RT-PCR). In kind it is cell-based. The settings on record: LPS (1 µg/ml) 6 hours; 10 µM; FIG. 8 (LX2, NHLF, ARPE19 and KEL-Fib cells). The procedure: After inoculating 2×10^5 cells in a 6 well plate and then culturing for 24 hours, they were further cultured in a serum-free culture solution for 16 hours and then the Synthetic example 1 Compound was pre-treated for 20 minutes according to each condition and inflammation reaction was induced with LPS (1 µg/ml) for 6 hours. The expression of IL-1β was confirmed using RT-PCR. Total RNA was separated from the cells using RNeasy mini kit (Qiagen), and for the separated RNA 2ug, cDNA was synthesized using PrimeScript™ II 1st strand cDNA synthesis kit (TaKaRa) and then PCR was performed with AccuPower® PCR PreMix (Bioneer) to amplify genes. The nucleotide sequences for target primers are as follows. IL-1β (forward: 5'-[…]-3'(SEQ ID NO: 1), reverse: 5'-[…]-3'(SEQ ID NO: 2)); GAPDH (forward: 5'-[…]-3'(SEQ ID NO: 3), reverse: 5'-[…]-3'(SEQ ID NO: 4)); β-actin (forward: 5'-[…]-3'(SEQ ID NO: 5), reverse: 5'-[…]-3'(SEQ ID NO: 6)). The PCR product was confirmed by electrophoresis in 1.5% agarose gel.

Test [6] has as its system IL-6. Kind of test: Expression of IL-6 in pancreatic cancer associated fibroblasts (ELISA). It is filed as cell-based, human. The settings on record: P.CAF cells; compounds 10, 20, 30, 40, 60 and 80 µM for 48 hours; FIG. 5. How it is done: (§3) In order to confirm the effect of the compounds of Synthetic examples of the present invention on inflammation reaction in cancer associated fibroblasts, whether the expression of IL6 and IL8 was inhibited by the compounds of Synthetic examples in pancreatic cancer associated fibroblasts (PCAF) was observed.
(§4) After inoculating 1.5×10^5 cells in a 6 well plate and then culturing in P.CAF complete media for 48 hours, the compounds of Synthetic examples were treated by 10, 20, 30, 40, 60 and 80 µM for 48 hours according to each condition, and then the expression of IL-6 and IL-8 was confirmed by performing ELISA with Quantkine ELISA kit (R&D systems) as follows.
(§5) 100 µl of the culture solution in which the compounds of Synthetic examples were treated for 48 hours was added to the microplate strip for analysis including a 100 µl assay diluent and left at a room temperature for 2 hours and then the contents were removed, and then it was washed with 400 µl wash buffer 4 times. 200 µl of a human IL-6 or IL-8 conjugate was added and left at a room temperature for 2 hours and then the contents were removed, and then it was washed with 400 µl wash buffer 4 times. 200 µl of substrate solution was added and left at a room temperature for 20 minutes and then 50 µl of stop solution was added, and the absorbance at a wavelength of 450nm was measured within 30 minutes to confirm the expression level of IL-6 and IL-8.

Test [7] deals with IL-8. Kind of test: Expression of IL-8 in pancreatic cancer associated fibroblasts (ELISA). In kind it is cell-based, human. The settings on record: P.CAF cells; compounds 10, 20, 30, 40, 60 and 80 µM for 48 hours; FIG. 6. The procedure: as §3, §4, §5
For orientation: In an ELISA, binding on a coated surface is turned into a signal by an enzyme label.

For `CN(Cc1ccccc1)C1CCc2nn(-c3ccccn3)c(O)c2C1` (stereo not shown) [Compound 1, 5-(Benzylmethylamino)-2-(pyridin-2-yl)-4,5,6,7-tetrahydro-2H-indazol-3-ol], the “ROS production induced by PMA” value in test [1] and in test [2] was “inhibited” in each case. Moreover, the “increase in expression of αSMA induced by TGF-β1” value in test [3] (ARPE19 cells), in test [3] (KEL-FIB cells), in test [3] (LX-2 cells) and in test [3] (NHLF cells) was “significantly inhibited” in each case. The “contraction of the gel induced by TGF-β1” value in test [4] was “effectively inhibited”. Besides, in test [5], the “IL-1β induced by LPS” value is given as “effectively inhibited in a concentration-dependent manner”. In test [6], the “IL-6 expressed in P.CAF” value is on record as “effectively inhibited”. In test [7], the “IL-8 expressed in P.CAF” value is “effectively inhibited”.
